Patent US20040157744A1, “Substituted fluoroalkoxyphenylsulfonyl-amino(thio)carbonyltriazolino(thi)ones” (priority 2001, published 2004)
Blank lines part the entries; values can stand above or below the compound they belong to.

Legend:
weeds [1] = assay: Pre-emergence test, action against weeds; assay type: in vivo
Description: (§1) Solvent: 5 parts by weight of acetone
(§2) Emulsifier: 1 part by weight of alkylaryl polyglycol ether
(§3) To produce a suitable preparation of active compound, 1 part by weight of active compound is mixed with the stated amount of solvent, the stated amount of emulsifier is added and the concentrate is diluted with water to the desired concentration.
(§4) Seeds of the test plants are sown in normal soil. After 24 hours, the soil is sprayed with the preparation of active compounds such that the particular amount of active compound desired is applied per unit area. The concentration of active compound in the spray liquor is chosen such that the particular amount of active compound desired is applied in 1000 litres of water per hectare.
(§5) After three weeks, the degree of damage to the plants is rated in % damaged in comparison to the development of the untreated control. The figures denote:
(§6) 0%=no effect (like untreated control)

Wheat = assay: Pre-emergence test, Wheat; assay type: in vivo; conditions: after three weeks
Description: as §1, §2, §3, §4, §5, §6

Stellaria [2] = assay: Pre-emergence test, Stellaria; assay type: in vivo; conditions: 30 g ai/ha, after three weeks
Description: as §1, §2, §3, §4, §5, §6

Echinochloa [3] = assay: Pre-emergence test, Echinochloa; assay type: in vivo; conditions: 30 g ai/ha, after three weeks
Description: as §1, §2, §3, §4, §5, §6

Lolium [4] = assay: Pre-emergence test, Lolium; assay type: in vivo; conditions: 30 g ai/ha, after three weeks
Description: as §1, §2, §3, §4, §5, §6

Galium = assay: Pre-emergence test, Galium; assay type: in vivo; conditions: 30 g ai/ha, after three weeks
Description: as §1, §2, §3, §4, §5, §6

Matricaria [5] = assay: Pre-emergence test, Matricaria; assay type: in vivo; conditions: after three weeks
Description: as §1, §2, §3, §4, §5, §6

Amaranthus [6] = assay: Pre-emergence test, Amaranthus; assay type: in vivo; conditions: after three weeks
Description: as §1, §2, §3, §4, §5, §6

Lolium [7] = assay: Post-emergence test, Lolium; assay type: in vivo; conditions: 15 g ai/ha, after three weeks, vs untreated control (Table B-2)
Description: as §1, §2, §3
(§7) Test plants of a height of 5-15 cm are sprayed with the preparation of active compound such that the particular amounts of active compound desired are applied per unit area. The concentration of the spray liquor is chosen such that the particular amounts of active compound desired are applied in 10001 of water/ha.
(§8) After three weeks, the degree of damage to the plants is rated in % damage in comparison to the development of the untreated control.
as §6

Amaranthus [8] = assay: Post-emergence test, Amaranthus; assay type: in vivo; conditions: 15 g ai/ha, after three weeks
Description: as §1, §2, §3, §7, §8, §6

Matricaria [9] = assay: Post-emergence test, Matricaria; assay type: in vivo; conditions: 15 g ai/ha, after three weeks
Description: as §1, §2, §3, §7, §8, §6

Stellaria [10] = assay: Post-emergence test, Stellaria; assay type: in vivo; conditions: 15 g ai/ha, after three weeks
Description: as §1, §2, §3, §7, §8, §6

weeds [11] = assay: Post-emergence test, action against weeds; assay type: in vivo
Description: as §1, §2, §3, §7, §8, §6

Echinochloa [12] = assay: Post-emergence test, Echinochloa; assay type: in vivo; conditions: 15 g ai/ha, after three weeks, vs untreated control (Table B-2)
Description: as §1, §2, §3, §7, §8, §6

Abutilon = assay: Post-emergence test, Abutilon; assay type: in vivo; conditions: 15 g ai/ha, after three weeks
Description: as §1, §2, §3, §7, §8, §6

Alopecurus [13] = assay: Post-emergence test, Alopecurus; assay type: in vivo; conditions: 15 g ai/ha, after three weeks, vs untreated control (Table B-2)
Description: as §1, §2, §3, §7, §8, §6

Viola = assay: Pre-emergence test, Viola; assay type: in vivo; conditions: after three weeks
Description: as §1, §2, §3, §4, §5, §6

Alopecurus [14] = assay: Pre-emergence test, Alopecurus; assay type: in vivo; conditions: after three weeks
Description: as §1, §2, §3, §4, §5, §6

Sugar beet = assay: Pre-emergence test, Sugar beet; assay type: in vivo; conditions: 30 g ai/ha, after three weeks, vs untreated control (Table A-5)
Description: as §1, §2, §3, §4, §5, §6

Setaria = assay: Post-emergence test, Setaria; assay type: in vivo; conditions: 15 g ai/ha, after three weeks, vs untreated control (Table B-1)
Description: as §1, §2, §3, §7, §8, §6

Solanum = assay: Pre-emergence test, Solanum; assay type: in vivo; conditions: after three weeks
Description: as §1, §2, §3, §4, §5, §6

Xanthium = assay: Post-emergence test, Xanthium; assay type: in vivo; conditions: 15 g ai/ha, after three weeks, vs untreated control (Table B-1)
Description: as §1, §2, §3, §7, §8, §6

Barley = assay: Pre-emergence test, Barley; assay type: in vivo; conditions: 4 g ai/ha, after three weeks, vs untreated control (Table A-2)
Description: as §1, §2, §3, §4, §5, §6

[15] = 30 g ai/ha, vs untreated control (Table A-3)
[16] = vs untreated control (Table A-3)
[17] = vs untreated control (Table B-2)
[18] = 30 g ai/ha, vs untreated control (Table A-4)
[19] = vs untreated control (Table A-4)
[20] = vs untreated control (Table A-5)
[21] = 30 g ai/ha, vs untreated control (Table A-5)
[22] = 8 g ai/ha, vs untreated control (Table A-1)
[23] = vs untreated control (Table B-1)
[24] = 4 g ai/ha, vs untreated control (Table A-2)

melting point: 120 °C
SMILES: COc1nn(C(=O)NS(=O)(=O)c2c(C)cccc2OCCCF)c(=O)n1C [Ex. 41]
action against weeds (weeds [1]): very strong action | degree of damage, Wheat (Wheat; [15]): 0% | degree of damage, Stellaria (Stellaria [2]; [16]): 100% | degree of damage, Echinochloa (Echinochloa [3]; [16]): 95% | degree of damage, Lolium (Lolium [4]; [16]): 90% | degree of damage, Galium (Galium; [16]): 100% | degree of damage, Matricaria (Matricaria [5]; [15]): 100% | degree of damage, Amaranthus (Amaranthus [6]; [15]): 95%

melting point: 140 °C
SMILES: CCc1cccc(OCCCF)c1S(=O)(=O)NC(=O)n1nc(CC)n(C2CC2)c1=O [Ex. 93]
degree of damage, Viola (Viola; [18]): 100% | action against weeds (weeds [1]): very strong action | degree of damage, Stellaria (Stellaria [2]; [19]): 100% | degree of damage, Echinochloa (Echinochloa [3]; [19]): 100% | degree of damage, Lolium (Lolium [4]; [19]): 95% | degree of damage, Alopecurus (Alopecurus [14]; [18]): 95% | degree of damage, Galium (Galium; [19]): 95% | degree of damage, Amaranthus (Amaranthus [6]; [18]): 100%

melting point: 132 °C
SMILES: CCCOc1cccc(OCCF)c1S(=O)(=O)NC(=O)n1nc(OCC)n(C)c1=O [Ex. 32]
degree of damage, Viola (Viola; [22]): 100% | action against weeds (weeds [1]): very strong action | degree of damage, Amaranthus (Amaranthus [8]; [23]): 100% | degree of damage, Matricaria (Matricaria [9]; [23]): 100% | degree of damage, Stellaria (Stellaria [10]; [23]): 100% | degree of damage, Setaria (Setaria): 95% | action against weeds (weeds [11]): very strong action | degree of damage, Solanum (Solanum; [22]): 100% | degree of damage, Alopecurus (Alopecurus [14]; [22]): 100% | degree of damage, Matricaria (Matricaria [5]; [22]): 100% | degree of damage, Abutilon (Abutilon; [23]): 100% | degree of damage, Xanthium (Xanthium): 100% | degree of damage, Amaranthus (Amaranthus [6]; [22]): 100%

melting point: 123 °C
SMILES: CCCOc1nn(C(=O)NS(=O)(=O)c2c(OCC)cccc2OCCF)c(=O)n1C [Ex. 34]
degree of damage, Viola (Viola; [24]): 95% | action against weeds (weeds [1]): very strong action | degree of damage, Barley (Barley): 10% | degree of damage, Wheat (Wheat; [24]): 0% | degree of damage, Solanum (Solanum; [24]): 95% | degree of damage, Alopecurus (Alopecurus [14]; [24]): 100% | degree of damage, Matricaria (Matricaria [5]; [24]): 100% | degree of damage, Amaranthus (Amaranthus [6]; [24]): 95%

Further lines, the compound ahead of its results:

SMILES: CCOc1cccc(OCCF)c1S(=O)(=O)NC(=O)n1nc(OCC)n(C)c1=O [Ex. 33]
degree of damage, Lolium (Lolium [7]): 95% | degree of damage, Amaranthus (Amaranthus [8]; [17]): 100% | degree of damage, Matricaria (Matricaria [9]; [17]): 100% | degree of damage, Stellaria (Stellaria [10]; [17]): 100% | action against weeds (weeds [11]): very strong action | melting point: 157 °C | degree of damage, Echinochloa (Echinochloa [12]): 100% | degree of damage, Abutilon (Abutilon; [17]): 100% | degree of damage, Alopecurus (Alopecurus [13]): 95%

SMILES: CCCc1cccc(OCCCF)c1S(=O)(=O)NC(=O)n1nc(N(C)C)n(C2CC2)c1=O [Ex. 114]
action against weeds (weeds [1]): very strong action | degree of damage, Stellaria (Stellaria [2]; [20]): 95% | degree of damage, Lolium (Lolium [4]; [20]): 95% | melting point: 130 °C | degree of damage, Alopecurus (Alopecurus [14]; [21]): 95% | degree of damage, Sugar beet (Sugar beet): 0% | degree of damage, Galium (Galium; [20]): 80% | degree of damage, Amaranthus (Amaranthus [6]; [21]): 95%

SMILES: CCc1ccccc1S(=O)(=O)N(OCCF)C(=O)n1nc(C)n(C2CC2)c1=O [Ex. 1, 4-cyclopropyl-5-methyl-2-[(2-fluoro-ethoxy)-6-ethyl-phenylsulphonylaminocarbonyl]-2,4-dihydro-3H-1,2,4-triazol-3-one]
melting point: 147 °C
